# Residue numbers refer to the chain shown, from its start.
# Key:
# [1] = molecular target: T1, ferrochelatase variant P255R (Mus musculus, UniProt P22315, P308R); assay: Transient kinetic analysis of NMPP inhibition (stopped-flow, zinc-protoporphyrin formation); assay type: biochemical, murine
# T1 construct: In wild-type, murine, mature ferrochelatase, five tryptophan residues; penta-histidine tag (N); made in house; host or cells: E. coli BL21(DE3)
# T1 sequence (P22315 54-422 P308R): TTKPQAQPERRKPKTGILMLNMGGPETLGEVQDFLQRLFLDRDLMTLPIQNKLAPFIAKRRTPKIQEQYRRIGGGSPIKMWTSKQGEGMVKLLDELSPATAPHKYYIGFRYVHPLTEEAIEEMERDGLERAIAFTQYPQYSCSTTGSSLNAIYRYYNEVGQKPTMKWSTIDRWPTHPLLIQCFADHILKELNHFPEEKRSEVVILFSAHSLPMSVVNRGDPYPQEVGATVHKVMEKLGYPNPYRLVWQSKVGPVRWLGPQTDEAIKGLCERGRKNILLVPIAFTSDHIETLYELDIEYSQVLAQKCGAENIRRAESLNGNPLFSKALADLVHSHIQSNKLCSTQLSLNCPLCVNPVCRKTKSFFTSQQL
# Experimental: (§1) Enzyme (0.5 μM) was reacted with protoporphyrin (5 μM) and zinc-acetate (15 μM) in the presence of various concentrations of NMPP. The pseudo first-order rate constant k was obtained from analysis of the time course (see Materials and Methods and FIG. 4) and plotted against NMPP concentration. The enzymes used in each set were: A. wild-type ferrochelatase; B. variant P255R; C. variant P255G.
# (§2) In order to obtain the pseudo first-order rate constants for NMPP binding, the kinetic traces for zinc-protoporphyrin formation in the presence of various concentrations of inhibitor were fitted to equation 3. […] The data were fit to equation 1 for a two step process:
# (§3) [formula] where k is the pseudo first-order rate constant for the approach to the steady-state phase, I0 is the inhibitor concentration, S0 is the initial substrate concentration,
# (§4) [formula] is the apparent inhibition constant, Ki^app, and k2 and k−2 are the second step forward and reverse rate constants, respectively. […] A two kinetic step process for binding of NMPP to either wild-type ferrochelatase or P255R (i.e., a fast, initial step for NMPP binding to the enzyme, followed by a slow step, possibly related to a conformational rearrangement of the protein-inhibitor complex) is consistent with the porphyrin-triggered conformational change of the active-site pocket deduced from the analysis of the crystal structure of B. subtilis ferrochelatase with bound N-methyl mesoporphyrin in comparison with that of the unliganded protein. […] Therefore the diminished inhibition of variant P255R by NMPP (Ki^app=1 μM vs. Ki^app=3 nM for wild-type ferrochelatase) cannot be accounted for by differences in these rates.
# (§5) Transient Kinetic Analysis. The kinetic steps involved in NMPP binding to ferrochelatase were assessed using stopped-flow absorption spectroscopic analysis by monitoring the enzymatic reaction in the presence of various concentrations of the inhibitor NMPP. The reactions were performed using a rapid scanning stopped-flow spectrophotometer (model RSM-1000; OLIS Inc.), equipped with a stopped-flow mixer and an observation chamber with an optical path-length of 4 mm. The dead time of the instrument is ˜2 ms. Scan spectra spanning the wavelength range of 347 to 574 nm were collected at a rate of 1000 scan/sec. The syringes containing the reaction components and the stopped-flow cell were maintained at 30° C. using an external water-bath. The concentrations of reagents loaded into each syringe were two-fold greater than the final concentrations in the observation chamber. Enzymatic activity was monitored by following the increase in absorbance at 420 nm for zinc-protoporphyrin production using Zn^2+ and protoporphyrin as substrates.
# (§6) The enzyme and substrate stock solutions were diluted in 100 mM Tris-acetate, pH 8.0, containing 0.5% Tween-80. The stock solutions for substrates and inhibitor were prepared as follows: A 3 mM zinc-acetate solution was made by dissolving zinc-acetate in distilled and deionized H2O. A 200 μM protoporphyrin solution was prepared by dissolving protoporphyrin 1× in 50 mM NH4OH containing 0.5% Tween-80. A 2 mM NMPP solution was prepared by dissolving NMPP in 100 mM NH4OH containing 0.5% Tween-80. Typically, a 2 mL solution that was 1 μM in ferrochelatase and 10 μM in protoporphyrin was pre-incubated on ice for 30 min. The porphyrin-enzyme solution was titrated with NMPP. The mixture was subsequently transferred to one of the stopped-flow syringes. The other stopped-flow syringe was loaded with a reaction buffer solution of ˜2 mL that was 30 μM in zinc-acetate. The enzymatic reaction was initiated by mixing the contents from both syringes and reaction progression was monitored by following the increase in absorbance at 420 nm. The data were analyzed by fitting the observed absorbance values to equation 4: […]
# wild-type ferrochelatase = molecular target: T2, wild-type ferrochelatase (Mus musculus, UniProt P22315); assay: as above; assay type: biochemical, murine
# T2 construct: In wild-type, murine, mature ferrochelatase, five tryptophan residues; penta-histidine tag (N); made in house; host or cells: E. coli BL21(DE3)
# T2 sequence (P22315 54-422): T1 sequence (P22315 54-422 P308R) with R255P
# Experimental: as §1, §2, §3, §4, §5, §6
# ferrochelatase = conditions: background statement, potent inhibitor of ferrochelatase; cited from earlier work
# [2] = two-step fit (equation 1), read-out: apparent inhibition constant Ki^app
substance,measurement,setting,value
N-methyl protoporphyrin [NMPP],second step forward rate constant k2,[1],8.3 s⁻¹
same,second step reverse rate constant k−2,[1],19.3 s⁻¹
same,Ki,[1]; [2],1000 nM
same,second step forward rate constant k2,wild-type ferrochelatase,6.4 s⁻¹
same,second step reverse rate constant k−2,wild-type ferrochelatase,24.5 s⁻¹
same,Ki,wild-type ferrochelatase; [2],3 nM
same,Ki,ferrochelatase,~10 nM
